Results as given in patent publication US20100311674A1, “PHARMACEUTICAL COMPOSITIONS WITH A MECHANISM OF MULTI-TARGET RECEPTOR RETROACTION FOR TREATING DEPRESSION” (Yu-Fen Chi, priority 2007, published 2010).

Key:
[1] = test system: rat olfactory bulb lesion model; experiment: Open field activity experiment of the rat olfactory bulb lesion model (Experiment 7); format: in vivo; conditions: 2 mg/kg/d into the stomach, 24 days; within 3 minutes
Experimental: Olfactory bulb lesion model: Health Wistar male rats, secondary, 330±20 g of body weight, are purchased from Beijing Vital River Experimental Animal Technology Ltd. Co. (The quality certificate number: SCXK (JING) 2002-2003).
The above pharmaceuticals are prepared with 0.5% of sodium carboxymethylcellulose (CMC-Na) for feeding into the stomach. Benzylpenicillin sodium for injection is the product of North China Pharmaceutical Huasheng Co. Ltd. (Lot: S0511204), and norepinephrine (NE) and 5-hydrotryptamine (5-HT) standards are the products of Sigma Co. Other reagents are all marketed.
7.4.1 Group division and administration of drug: The rats are grouped randomly into 6 groups. 1. […]
7.5.1 Open field activity experiment: The open field activity box (1 m×1 m×0.4 m) is constructed by the light blue plywood and the aluminum alloy frame. […] The rat is placed in the center of the central grids, and the rat's cross-grid number (the number of crossing into the neighboring gird more than 3 claws) and rat's standing number (two forelimbs leaving the ground for more than 1 cm) are calculated/observed within 3 minutes.
7.6 Statistic calculation: The experimental data are represented as X+SD, and the experimental result is calculated as ANOVA by SPSS 11.5 statistic software.

ICR mice = experiment: Mouse tail-hanging test of the debris mixture (Experiment 11); format: in vivo; conditions: 3 mg/kg P.O. 7 days; 1 h after last dose; last 5 of 6 min
Source text: Nine (9) kg of the remained ginseng debris, 7 kg of the remained liquorice debris and 0.9 kg of the jujuba debris from the Embodiments 1 and 4 extraction procedures are collected, dried, pulverized, and mixed well for obtaining the debris mixture containing the trace amount of ginsenoside Rg1 and Rb1, glycyrrhizic acid and jujuba cAMP. The control experiment of examining the influence of the debris in the mouse tail-hanging test is proceeded. 11.1 Experimental animals: ICR mice, male, 22.0±2 g of body weight, secondary, are provided by the Experimental Animal Science Department of Capital Medical University, Beijing. 11.2 Experiment pharmaceuticals: The debris mixture is provided by Beijing Wonner Biotech. […] High dose of debris mixture (160 mg/kg/d); 2. middle dose of debris mixture (80 mg/kg/d); and 3. low dose of debris mixture (40 mg/kg/d). 11.5.1 Group division and administration of drug: The mice are grouped randomly with 10 mice in each group. 1. […] The time of non-movement of the mouse for the last 5 minutes is recorded. 11.5.3 Statistic calculation: The experimental data are represented as X±SD, and the experimental result is calculated as ANOVA by SPSS 11.5 statistic software.

[2] = test system: unpredictable long-term stimulus model; experiment: Step-through test (passive avoidance), unpredictable long-term stimulus model (Experiment 8); format: in vivo, rat; conditions: 2 mg/kg/d into the stomach, 24 days
Source text: 7.5.2 Passive avoidance experiment (Step-through test): The step through box is configured by the light chamber and the dark chamber, and a channel is linked between the bright chamber and the dark chamber for mouse entrance and exit. The grille of the dark chamber is connected to the electric shock equipment, and a mobile plate is set there between. If the rat enters into the dark chamber, the rat will be electrically shocked. During training, the rat is placed in the light chamber and is back in the hole for adaptation for 5 minutes. Then the plate is removed and the rat is observed for another 5 minutes. The time that the rat enters into for the first time is recorded (electric-shocking latent period), and the time thereof is the learning record. After 24 hours, the test is repeated. The plate is removed and the dark chamber is electrified for 5 minutes so as to observe the time that the rat enters into the dark chamber for the first time. This is thereof the memory record.
Unpredictable long-term stimulus model: Health Wistar male rats, secondary, 240˜270 g of body weight, are purchased from Beijing Vital River Experimental Animal Technology Ltd. Co. (The quality certificate number: SOCK (JING) 2002-2003). […]
8.6 Statistic calculation: The experimental data are represented as […], and the experimental result is calculated as ANOVA by SPSS 11.5 statistic software.

## Fc1ccc([C@@H]2CCNC[C@H]2COc2ccc3c(c2)OCO3)cc1 [Paroxetine]
[1]
  Horizontal movement (cross-grid number): 55.36 ± 25.96
  Vertical movement (standing number): 14.36 ± 5.55
ICR mice
  Time of non-movement: 38.37 ± 20.76 s
[2]; learning record
  Latent period of first day: 75.75 ± 46.52 s
[2]; memory record
  Latent period of second day: 257.46 ± 66.92 s
